# Patent US20050112573A1, “Method of detecting toxic substance” (priority 2001, published 2005)
# Test system: yeast genes (level of expressed mRNA)
# Test: DNA chip analysis of expressed mRNA of yeast genes after 2 h culture with a toxic chemical substance
# Type: cell-based, Saccharomyces cerevisiae S288C
# Conditions: for The level of expressed mRNA in the presence of chemical substance/ (ratio to absence of chemical substance): stress protein genes, DNA chip
# Procedure: Yeast (Saccharomyces cerevtisiae S288C (α SUC2mal mel gap2 CUP1)) were cultured at 25° C. on YPD medium (yeast extract 1%, polypepton 2%, glucose 2%). One of toxic chemical substances was added to the cell at logarithmic growth phase, and the cell was further cultured for two hours. Cell was cultured without any chemical substance in the same condition, and was used as control. Concentrations of the chemical substances were defined to inhibit the growth of the yeast but not lead to death.
# After the completion of cultivation, the culture was centrifuged to collect the cells. To the cells, sodium acetate buffer (50 mM sodium acetate, 10 mM EDTA, 1% SDS) was added, and the mixture was shaken at 65° C. for five minutes, followed by returning to room temperature, and obtaining the supernatant, which procedure was repeated two times. To the supernatant, ½ amount of a solution of phenol/chloroform was added, and the mixture was centrifuged to give a supernatant, which was added with an equal amount of chloroform, and the mixture was centrifuged to give a supernatant. To the supernatant, an equal amount of isopropanol containing 0.3 M sodium acetate was added, and the mixture was allowed to stand at room temperature for 30 minutes, after which the mixture was centrifuged to give a sediment of the whole RNAs. Seventy % ethanol was added to the sediment, and the mixture was again centrifuged to give a sediment, which was then dried and dissolved in water. mRNA was isolated from the whole RNAs as followings. In view of the fact that a poly A chain is attached to the 3′ terminus of mRNA, a polynucleotide having a poly T structure which was immobilized on the surface of latex beads was used to trap the mRNA, and then the mRNA was washed and eluted with spine column (Oligotex-dT30<Super>mRNA Purification Kit, Takara). Reverse transcription of the mRNA was conducted with a reverse transcriptase (Super Script II Reverse Transcriptase; catalogue No. 18064-014, GibcoBRL) using fluorescence-labeled nucleotides to give cDNAs that were introduced with Cy3-dUTP or Cy5-dUTP during the reverse transcription.
# The labeled cDNAs were dissolved in TE buffer (10 mM Tris-HCl/1 mM EDTA, pH8.0), and the solution was dropped on the DNA chip containing the whole genes of yeast (DNA Chip Research Inc. Japan) so that the cDNAs were hybridized on the DNA chip at 65° C. for over 12 hours. The fluoresces intensity of the DNA chip was read with a scanner, and the ratio relative to the fluorescence intensity resulting from the absence of chemical substance was estimated as the following, which is shown in Tables 1 to 9: [formula]
# In the Tables, “Intensity” indicated in the rightmost column is a value of the level of expressed mRNA of each gene in control cells as divided by the average level of the expressions of the whole genes.
smiles,measurement,setting,value
"COc1cc(CNC(=O)CCCCC=CC(C)C)ccc1O [(12), 8-methyl-N-vanillyl-6-nonenamide]","The level of expressed mRNA in the presence of chemical substance/ (in its absence), gene YDR073W","yeast gene YDR073W, ratio of DNA chip fluorescence intensity to that without chemical substance",0.8
same,"The level of expressed mRNA in the presence of chemical substance/ in its absence, gene YDR079W","yeast gene YDR079W, energy system protein genes, 2 h culture with the chemical, ratio to control without chemical",1.1
same,"The level of expressed mRNA in the presence of chemical substance/ (ratio to absence), gene YDR079W","yeast gene YDR079W, mitochondria-located protein genes, 2 h culture with chemical",1.1
same,The level of expressed mRNA in the presence of chemical substance/The level of expressed mRNA in the absence of chemical substance,yeast gene YDR084C,0.7
same,The level of expressed mRNA in the presence of chemical substance/The level of expressed mRNA in the absence of chemical substance,yeast gene YDR085C,1.6
same,The level of expressed mRNA in the presence of chemical substance/The level of expressed mRNA in the absence of chemical substance,yeast gene YDR104C,1.1
same,The level of expressed mRNA in the presence of chemical substance/The level of expressed mRNA in the absence of chemical substance,yeast gene YDR115W,0.9
same,The level of expressed mRNA in the presence of chemical substance/The level of expressed mRNA in the absence of chemical substance,yeast gene YDR259C,1.0
same,"The level of expressed mRNA in the presence of chemical substance/ (in its absence), gene YDR297W","yeast gene YDR297W, ratio of DNA chip fluorescence intensity to that without chemical substance",1.0
same,The level of expressed mRNA in the presence of chemical substance/The level of expressed mRNA in the absence of chemical substance,yeast gene YDR315C,0.6
same,The level of expressed mRNA in the presence of chemical substance/The level of expressed mRNA in the absence of chemical substance,yeast gene YDR358W,1.1
same,"The level of expressed mRNA in the presence of chemical substance/ (ratio to absence), gene YDR377W","yeast gene YDR377W, mitochondria-located protein genes, 2 h culture with chemical",0.9
same,"The level of expressed mRNA in the presence of chemical substance/ (in its absence), gene YDR387C","yeast gene YDR387C, ratio of DNA chip fluorescence intensity to that without chemical substance",0.9
same,The level of expressed mRNA in the presence of chemical substance/The level of expressed mRNA in the absence of chemical substance,yeast gene YDR388W,0.8
same,The level of expressed mRNA in the presence of chemical substance/The level of expressed mRNA in the absence of chemical substance,yeast gene YDR406W,3.9
same,The level of expressed mRNA in the presence of chemical substance/The level of expressed mRNA in the absence of chemical substance,yeast gene YDR432W,0.7
same,The level of expressed mRNA in the presence of chemical substance/The level of expressed mRNA in the absence of chemical substance,yeast gene YDR481C,0.9
same,The level of expressed mRNA in the presence of chemical substance/The level of expressed mRNA in the absence of chemical substance,yeast gene YDR510W,1.4
same,The level of expressed mRNA in the presence of chemical substance/ (ratio to absence of chemical substance),yeast gene YEL039C,0.6
same,The level of expressed mRNA in the presence of chemical substance/The level of expressed mRNA in the absence of chemical substance,yeast gene YEL042W,1.0
same,The level of expressed mRNA in the presence of chemical substance/The level of expressed mRNA in the absence of chemical substance,yeast gene YEL066W,0.8
same,"The level of expressed mRNA in the presence of chemical substance/ (in its absence), gene YER015W","yeast gene YER015W, ratio of DNA chip fluorescence intensity to that without chemical substance",0.9
same,The level of expressed mRNA in the presence of chemical substance/The level of expressed mRNA in the absence of chemical substance,yeast gene YER039C,0.9
same,The level of expressed mRNA in the presence of chemical substance/ (ratio to absence of chemical substance),yeast gene YER057C,1.5
same,The level of expressed mRNA in the presence of chemical substance/The level of expressed mRNA in the absence of chemical substance,yeast gene YER107C,0.7
same,The level of expressed mRNA in the presence of chemical substance/The level of expressed mRNA in the absence of chemical substance,yeast gene YER130C,1.0
same,The level of expressed mRNA in the presence of chemical substance/The level of expressed mRNA in the absence of chemical substance,yeast gene YFL028C,1.1
same,The level of expressed mRNA in the presence of chemical substance/The level of expressed mRNA in the absence of chemical substance,yeast gene YFL043C,0.9
same,The level of expressed mRNA in the presence of chemical substance/The level of expressed mRNA in the absence of chemical substance,"yeast gene YFR015C, two hours culture",0.4
same,The level of expressed mRNA in the presence of chemical substance/The level of expressed mRNA in the absence of chemical substance,yeast gene YFR024C,1.5
same,"The level of expressed mRNA in the presence of chemical substance/ (in its absence), gene YGL035C","yeast gene YGL035C, ratio of DNA chip fluorescence intensity to that without chemical substance",0.9
same,"The level of expressed mRNA in the presence of chemical substance/ (in its absence), gene YGL115W","yeast gene YGL115W, ratio of DNA chip fluorescence intensity to that without chemical substance",0.9
same,The level of expressed mRNA in the presence of chemical substance/ (ratio to absence of chemical substance),yeast gene YGL115W,0.9
same,The level of expressed mRNA in the presence of chemical substance/The level of expressed mRNA in the absence of chemical substance,yeast gene YGL158W,1.3
same,"The level of expressed mRNA in the presence of chemical substance/ (ratio to absence), gene YGL187C","yeast gene YGL187C, mitochondria-located protein genes, 2 h culture with chemical",0.8
same,"The level of expressed mRNA in the presence of chemical substance/ (in its absence), gene YGL205W","yeast gene YGL205W, ratio of DNA chip fluorescence intensity to that without chemical substance",1.1
same,The level of expressed mRNA in the presence of chemical substance/The level of expressed mRNA in the absence of chemical substance,yeast gene YGL229C,1.1
same,The level of expressed mRNA in the presence of chemical substance/The level of expressed mRNA in the absence of chemical substance,"yeast gene YGR008C, two hours culture",2.0
same,"The level of expressed mRNA in the presence of chemical substance/ in its absence, gene YGR062C","yeast gene YGR062C, energy system protein genes, 2 h culture with the chemical, ratio to control without chemical",1.0
same,"The level of expressed mRNA in the presence of chemical substance/ (ratio to absence), gene YGR062C","yeast gene YGR062C, mitochondria-located protein genes, 2 h culture with chemical",1.0
same,"The level of expressed mRNA in the presence of chemical substance/ (in its absence), gene YGR096W","yeast gene YGR096W, ratio of DNA chip fluorescence intensity to that without chemical substance",0.8
same,The level of expressed mRNA in the presence of chemical substance/The level of expressed mRNA in the absence of chemical substance,yeast gene YGR136W,1.2
same,The level of expressed mRNA in the presence of chemical substance/The level of expressed mRNA in the absence of chemical substance,yeast gene YGR189C,1.3
same,The level of expressed mRNA in the presence of chemical substance/The level of expressed mRNA in the absence of chemical substance,yeast gene YGR213C,10.6
same,The level of expressed mRNA in the presence of chemical substance/The level of expressed mRNA in the absence of chemical substance,yeast gene YGR257C,0.9
same,The level of expressed mRNA in the presence of chemical substance/The level of expressed mRNA in the absence of chemical substance,yeast gene YGR281W,2.4
same,"The level of expressed mRNA in the presence of chemical substance/ (in its absence), gene YGR287C","yeast gene YGR287C, ratio of DNA chip fluorescence intensity to that without chemical substance",1.1
same,"The level of expressed mRNA in the presence of chemical substance/ (in its absence), gene YGR288W","yeast gene YGR288W, ratio of DNA chip fluorescence intensity to that without chemical substance",0.9
same,The level of expressed mRNA in the presence of chemical substance/ (ratio to absence of chemical substance),yeast gene YHL028W,1.5
same,The level of expressed mRNA in the presence of chemical substance/ (ratio to absence of chemical substance),yeast gene YHL046C,1.1
same,The level of expressed mRNA in the presence of chemical substance/The level of expressed mRNA in the absence of chemical substance,yeast gene YHL047C,2.6
same,The level of expressed mRNA in the presence of chemical substance/The level of expressed mRNA in the absence of chemical substance,yeast gene YHR004C,0.9
same,The level of expressed mRNA in the presence of chemical substance/The level of expressed mRNA in the absence of chemical substance,yeast gene YHR071W,0.8
same,The level of expressed mRNA in the presence of chemical substance/The level of expressed mRNA in the absence of chemical substance,yeast gene YHR139C,1.6
same,The level of expressed mRNA in the presence of chemical substance/The level of expressed mRNA in the absence of chemical substance,yeast gene YHR142W,1.3
same,"The level of expressed mRNA in the presence of chemical substance/ (in its absence), gene YHR210C","yeast gene YHR210C, ratio of DNA chip fluorescence intensity to that without chemical substance",0.5
same,"The level of expressed mRNA in the presence of chemical substance/ (in its absence), gene YIL006W","yeast gene YIL006W, ratio of DNA chip fluorescence intensity to that without chemical substance",0.9
same,The level of expressed mRNA in the presence of chemical substance/ (ratio to absence of chemical substance),yeast gene YIL011W,0.6
